Data set [1] relates to SK-MEL-5 human melanoma xenograft. Kind of data set: SK-MEL-5 human melanoma xenograft in athymic mice. The class given is in vivo. The method, then: (§1) The tumor inhibitory activity of the CR011-MMAE immunoconjugate was measured in an anti-tumor xenograft model using athymic mice, according to published methods (see Geran et al., Cancer Chemother. Rep. 3:1-104 (1972)). […] When tumors became established (10-20 days), the animals were pair-matched into groups (n=6 mice/group), and treatment was administered by intravenous injection (tail vein).
(§2) The SK-MEL-2 human melanoma (ATCC #HTB-68) was derived from a metastatic site (skin of thigh) of a person with malignant melanoma, and the SK− MEL-5 human melanoma (ATCC #HTB-70) was derived from a metastatic site (axillary lymph node) of a person with malignant melanoma (see Fogh et al., J. Natl. Cancer Inst. 59: 221-226 (1977)). Both cell lines were obtained from the American Type Culture Collection.
(§3) The effects of treatment were monitored by repetitive tumor measurements across 2 diameters with Vernier calipers; tumor size (in mg) was calculated using a standard formula, (W^2×L)/2, assuming a specific gravity of 1.0. Tumor size and body weights were assessed twice weekly. Mice were examined daily, however, and moribund animals were humanely euthanized if clinical indications of excessive pain or distress were noted (i.e., prostration, hunched posture, paralysis/paresis, distended abdomen, ulcerations, abscesses, seizures, and/or hemorrhages) Animals with tumors exceeding 2,000 mg were removed from the study and euthanized humanely.
Soon after the commencement of treatment with paclitaxel, however, significant tumor growth inhibition was observed (P≦0.039) at day 3 after treatment began, and this anti-tumor effect continued, producing 100% growth inhibition (stasis). The responses of SK-MEL-5-bearing test animals to vinblastine and paclitaxel were short-lived. After cessation of treatment at the maximally tolerated doses, tumors resumed rapid, progressive growth.

Data set [2] relates to SK-MEL-2 melanoma xenografts. Kind of data set: Dosing interval (schedule dependency) study, SK-MEL-2 xenograft. The format is in vivo, athymic mice. The protocol:
Nota bene: Please note that, although all 5 sets of groups in this experiment (e.g., groups 5, 6, and 7 represent one set and received 32, 8, and 2 mg/kg cumulative dose, respectively) received the same cumulative doses, the first set receiving the “bolus dose” is different from the other 4 sets. The Cmax for each group in the “bolus” set was likely four-fold higher that the Cmax for the other 4 sets (see section on pharmacokinetics for dose-linearity after i.v. administration), since 4 sets of groups received 4 treatments, whereas the first set received only one “bolus” treatment (see column 7, Table 49 below).
The aggregate responses for each set of groups, where a set is defined as 3 groups of graduated dosage levels but one dosage interval (groups 5, 6, and 7 represent 1 set, all of which were treated with a dosing interval of 1 day) are shown in FIG. 7. […] However, this effect was not significant (P<0.2904).
The original design of this study was expanded to include an examination of the effects of various dosage levels. For each set, one group of animals received a cumulative dose of 8 mg/kg, which, from previous studies employing a dosing interval of 4 days, provided consistent therapeutic effects leading to long-term tumor-free animals. In addition, cumulative doses of 2 mg/kg and 32 mg/kg were employed.

Data set [3] has as its system SK-MEL-2 human melanoma xenograft. Kind of data set: SK-MEL-2 human melanoma xenograft in athymic mice. The format is in vivo. As to conditions: observation period >200 days.
The subject of the next data set is TK-10 control cells. Kind of data set: Cell cycle analysis (BrdU / propidium iodide flow cytometry). The class given is cell-based, human. The method, then:
(§4) Briefly, cells were pulsed at the indicated times with 30 μM of bromodeoxyuridine (BrdU, Sigma) for 30 min, harvested, fixed and permeabilized in methanol. Nascent DNA synthesis was detected by anti-bromodeoxyuridine-FITC (BD Biosciences, San Jose, Calif.) staining. Total DNA content was detected using propidium iodide (PI, Sigma). For apoptosis analysis, cells were treated as above and labeled with Annexin V-FITC followed by propidium iodide exclusion using the Annexin V-FITC Apoptosis Detection kit I (BD PharMingen, San Diego, Calif.) according to the manufacturer's protocols. Flow cytometry (as described in the previous Example) was used to assay both cell cycle and apoptosis studies.
(§5) DNA synthesis and cell cycle progression were determined by flow cytometry (Table 52).

For the next data set, the system named is SK-Mel-2 cells. The data set is described as above. The format is cell-based, human. The protocol:
as §4, §5

Data set [4] has as its system SK-MEL-2 human melanoma xenograft. Kind of data set: SK-MEL-2 human melanoma xenograft in athymic mice. The format is in vivo. The protocol:
Five- to 6-week old athymic mice (CD-1 nu/nu females), used for human tumor xenografts, were obtained from Harlan Laboratories (Indianapolis, Ind.). Animals were housed in specific pathogen-free conditions, according to the guidelines of the Association for Assessment and Accreditation of Laboratory Animal Care International (AAALAC International). Test animals were provided pelleted food and water ad libitum and kept in a room with conditioned ventilation (HVAC), temperature (22°±2° C.), relative humidity (55%±15%), and photoperiod (12 hr). All studies were carried out with approved institutional animal care and use protocols.
as §1, §2, §3
No apparent or statistically significant anti-tumor effects were observed. […] In preliminary studies, tumor regression was complete and was not followed by regrowth of the tumor despite lengthy observation periods (up to 200 days).

For a further data set, the system named is CG56972-expressing cells. Briefly: Internalization of cell surface bound antibodies (flow cytometry). The class given is cell-based, human. The settings on record: following incubation with CG56972-expressing cells. The protocol:
Internalization of cell surface bound antibodies was assessed by a modified flow cytometry procedure. […] After washing cells, incubation was shifted to 37° C. for 1 hr to allow internalization of bound antibodies. Cells that remained on ice (total surface bound) or that were incubated at 37° C. […] Labeled cells were analyzed by flow cytometry as described above. The percentage of antibody internalized was determined using the GMRs and the following formula:
Percent internalized=Total surface bound (4° C.)−Total surface bound (37° C.)/Total surface bound (4° C.)×100

Entries after “also recorded” stand apart in the source; their conditions may differ.

Turning to “CR011-vcMMAE: CR011 conjugated to monomethyl auristatin E through a protease cleavable valine-citrulline linker; approx. 4 drugs per antibody”, in data set [1] (10 mg/kg/treatment, compared to PBS-treated controls (P=0.039)), the “earliest significant anti-tumor effects, time after treatment began” value is given as 10 days. The “doses at which complete regressions occurred” value in data set [1] (i.v., q4d×4) is at least 2.5 mg/kg. For the same substance, the “anti-tumor effect (in words)” value in data set [1] (i.v., CR011-vcMMAE 1.25 to 20 mg/kg q4d×4, vinblastine […] q4d×4) was “Substantial tumor growth inhibition, as well as tumor growth delay and complete regressions”; in data set [4] (i.v., CR011-vcMMAE 20, 10, 5 or 2.5 mg/kg q4d×4, vinblastine […] q4d×4) it was “tumors rapidly diminished in size for the majority of the test animals”. Further, in data set [1] (mouse, in vivo), the “toxicity (mortality, body weight or weight gain)” value was “no indication of toxicity”. The same substance displayed a complete regressors in data set [2] (2 mg/kg cumulative dose) of 13%. Also, the complete regressions in data set [2] (8 mg/kg cumulative dose, all dosing intervals (28/30)) is on record as 93%; in data set [2] (cumulative dose of 32 mg/kg, all dosing intervals (30 test animals)) it was 100%. Moreover, the “schedule dependency of anti-tumor effects” value in data set [2] (dosing intervals 0, 1, 4, 8, 16 days) is on record as “not schedule-dependent”. Further, the “re-growth of completely regressed tumors” value in data set [3] is “did not re-grow”. The “effect on cycling of GPNMB-negative cells” value in the data set with TK-10 control cells (1000 ng/mL) was “did not affect the cycling”. For the same substance, the “% G1” value amounted to 51.1% with TK-10 control cells (TK-10, 24 hour, 100 ng/mL); 52.6% in the data set with TK-10 control cells (TK-10, 24 hour, 1000 ng/mL); 56.0% with SK-Mel-2 cells (SK-Mel-2, 24 hour, 100 ng/mL); 43.7% with SK-Mel-2 cells (SK-Mel-2, 24 hour, 1000 ng/mL). Besides, the “% S-phase” value in the data set on TK-10 control cells (TK-10, 24 hour, 100 ng/mL) stood at 35.1%; in the data set on TK-10 control cells (TK-10, 24 hour, 1000 ng/mL), 34.2%; in the data set with SK-Mel-2 cells (SK-Mel-2, 24 hour, 100 ng/mL) it was 26.9%; with SK-Mel-2 cells (SK-Mel-2, 24 hour, 1000 ng/mL), 20.0%. Further, the “% Sub-G1” value in the data set on TK-10 control cells (TK-10, 24 hour, 100 ng/mL) is recorded as 0.7%; in the data set on TK-10 control cells (TK-10, 24 hour, 1000 ng/mL) it was 0.8%; with SK-Mel-2 cells (SK-Mel-2, 24 hour, 100 ng/mL), 0.2%. Further, the “decreased percentage of cells in G1 and S-phase vs untreated cells” value in the data set on SK-Mel-2 cells (1000 ng/mL, 24 hrs) is listed as 10%. For the same substance, the “reduced percentage of cells in G1 and S-phase” value in the data set on SK-Mel-2 cells (1000 ng/mL, 48 hr) is listed as 11%. The tumor size reached in data set [4] (1 mg/kg single bolus dose, day 58) is ≥ 2,000 mg. Moreover, the “tumor response (in words)” value in data set [4] (10 mg/kg single bolus dose) is given as “complete regressions”. In addition, the “earliest significant treatment effects, time after treatment commenced” value in data set [4] (CR011-vcMMAE i.v. q4d×4, P≦0.014) is 4 days. The “treatment effects on gross examination” value in data set [4] (mouse, in vivo) is reported as “no abnormal treatment effects”. Moreover, the “effects of treatment on body weight or weight gain” value in data set [4] (twice weekly body weight determinations) is listed as “no observable or statistically significant effects”.
In the case of “CR011: fully human monoclonal antibody that specifically binds to GPNMB; VH SEQ ID NO: 20, VL SEQ ID NO: 29”, in the data set with TK-10 control cells (TK-10, 24 hour, 1000 ng/mL), the “% G1” value was 42.0%, the “% G2/M” value is listed as 6.3%, the “% S-phase” value is given as 39.8% and the “% Sub-G1” value is listed as 0.3%. In addition, in the data set on SK-Mel-2 cells (SK-Mel-2, 24 hour, 1000 ng/mL), the “% G1” value was 63.6%, the “% G2/M” value is recorded as 6.4%, the “% S-phase” value is 25.2% and the “% Sub-G1” value is reported as 0.5%. The “internalization (in words)” value with CG56972-expressing cells is on record as “internalized”. The “tumor growth inhibition by components of the immunoconjugate (in words)” value in data set [4] (doses identical to that contained in the intact immunoconjugate (5 mg/kg q4d×4)) is listed as “lack of responses; also recorded: lack of tumor growth inhibition”.

(Values after patent US20130244255A1, “ANTIBODIES DIRECTED TO GPNMB AND USES THEREOF” (priority 2006, published 2013).)
